According to patent US20230159556A1, “NOVEL PROTEIN KINASE INHIBITORS” (TENOVA PHARMACEUTICALS INC., priority 2020, published 2023):

How the values were obtained:
EGFR_L858R/T790M/C797S = biological target: T1, EGFR_L858R/T790M/C797S (Homo sapiens, UniProt P00533, C797S/L858R/T790M); assay: In vitro biochemical kinase assay (33P-ATP filter-binding, Reaction Biology)
T1 construct: Reaction Biology Corporation (contract assay provider)
Description: The biochemical kinase assay was performed at Reaction Biology Corporation (www.reactionbiology.com, Malvern, Pa.) following procedures described in the reference (Anastassiadis, T, et al, Nature Biotechnology, 2011, 29, 1039). Base Reaction buffer includes 20 mM Hepes (pH 7.5), 10 mM MgCl2, 1 mM EGTA, 0.02% Brij35, 0.02 mg/ml BSA, 0.1 mM Na3VO4, 2 mM DTT and 1% DMSO. Required cofactors are added individually to each kinase reaction. Testing compounds were dissolved in 100% DMSO to specific concentration. The serial dilution was conducted by Integra Viaflo Assist in DMSO. Compounds in 100% DMSO are into the kinase reaction mixture by Acoustic technology (Echo550; nanoliter range), incubate for 20 min at room temperature, followed by ^33P-ATP and incubation for 2 hours at room temperature. Radioactivity was then detected by filter-binding method. Kinase activity data were expressed as the percent remaining kinase activity in test samples compared to vehicle (dimethyl sulfoxide) reactions. IC50 values and curve fits were obtained using Prism (GraphPad Software).

[1] = biological target: Ba/F3_EGFR_del19/T790M/C797S cell (Homo sapiens, UniProt P00533, T790M/C797S, cells depend on it, form not given); assay: BaF3 cell proliferation assay (CelltiterGlo, 72 hr); assay type: cell-based; details: 72 hr incubation; read-out: IC50 (nM, Ba/F3_EGFR_del19/T790M/C797S cell proliferation)
Chain of Ba/F3_EGFR_del19/T790M/C797S cell (P00533 with tags, fused parts or gaps DEL746-750/T790M/C797S, form open): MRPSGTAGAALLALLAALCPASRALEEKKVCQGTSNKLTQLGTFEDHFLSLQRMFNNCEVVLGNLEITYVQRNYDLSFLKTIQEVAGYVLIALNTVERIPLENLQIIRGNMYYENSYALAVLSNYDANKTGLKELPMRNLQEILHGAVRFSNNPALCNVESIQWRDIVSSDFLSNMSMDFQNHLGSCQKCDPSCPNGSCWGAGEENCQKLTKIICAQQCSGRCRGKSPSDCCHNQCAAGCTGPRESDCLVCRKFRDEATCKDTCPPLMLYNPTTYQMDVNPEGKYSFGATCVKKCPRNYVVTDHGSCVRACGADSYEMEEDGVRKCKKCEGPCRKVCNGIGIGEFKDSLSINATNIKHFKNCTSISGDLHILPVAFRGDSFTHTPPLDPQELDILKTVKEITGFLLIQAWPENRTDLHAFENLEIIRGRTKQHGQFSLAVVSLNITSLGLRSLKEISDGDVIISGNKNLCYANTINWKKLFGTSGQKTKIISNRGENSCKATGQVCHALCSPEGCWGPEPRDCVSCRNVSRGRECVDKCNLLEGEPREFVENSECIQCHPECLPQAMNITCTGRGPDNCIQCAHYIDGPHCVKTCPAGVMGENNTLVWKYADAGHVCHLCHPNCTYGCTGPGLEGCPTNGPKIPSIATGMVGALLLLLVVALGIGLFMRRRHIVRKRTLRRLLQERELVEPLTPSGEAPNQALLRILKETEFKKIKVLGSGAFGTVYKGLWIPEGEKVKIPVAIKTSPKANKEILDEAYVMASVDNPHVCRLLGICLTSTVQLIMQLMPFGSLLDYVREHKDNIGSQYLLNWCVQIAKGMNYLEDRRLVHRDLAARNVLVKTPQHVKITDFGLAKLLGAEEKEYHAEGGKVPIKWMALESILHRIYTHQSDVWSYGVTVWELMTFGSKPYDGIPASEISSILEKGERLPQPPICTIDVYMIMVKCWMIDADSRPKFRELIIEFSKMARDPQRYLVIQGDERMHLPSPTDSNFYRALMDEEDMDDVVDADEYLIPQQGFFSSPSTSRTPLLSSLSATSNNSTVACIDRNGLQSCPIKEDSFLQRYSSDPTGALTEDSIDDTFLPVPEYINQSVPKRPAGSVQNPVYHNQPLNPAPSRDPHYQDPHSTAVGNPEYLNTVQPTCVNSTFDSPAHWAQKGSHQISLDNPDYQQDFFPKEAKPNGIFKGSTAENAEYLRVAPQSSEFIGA
Description: (§1) The BaF3 cell proliferation assay was performed at Pharmaron (www.pharmaron.com, Beijing, China). The Ba/F3_WT and Ba/F3_Del19/T790M/C797S cell lines were maintained in 1640 medium containing 10% FBS, 1*PS and 1*Glutamax. Only cells with viability greater than 90% are used for assays. Dispense 30 μl of cell suspension at 700/well into 384 well microplate, add 30 nl compound solution into 384 cell plate by Echo, cells were incubated for 72 hr in 37° C./5% CO2 incubator, add 30 μl reagent CelltiterGlo assay kit (CTG, Promega) per well and shake plates, incubate the plate (avoiding light) at 37° C./5% CO2 for 30 min. and read the luminescence by Envision. The luminescence values were converted to % Inhibition. Calculate IC50 by fitting % inhibition values and log of compound concentrations to nonlinear regression (dose response−variable slope) with Graphpad 5.0.
(§2) Y=Bottom+(Top−Bottom)/(1+10^((Log IC50−X)*HillSlope))
(§3) X: log of inhibitor concentration; Y: % Inhibition.

Ba/F3_WT cell = assay: as above; assay type: cell-based; details: Mus musculus, 72 hr incubation
Description: as §1, §2, §3

T1 sequence (P00533 25-1210 T790M/C797S/L858R): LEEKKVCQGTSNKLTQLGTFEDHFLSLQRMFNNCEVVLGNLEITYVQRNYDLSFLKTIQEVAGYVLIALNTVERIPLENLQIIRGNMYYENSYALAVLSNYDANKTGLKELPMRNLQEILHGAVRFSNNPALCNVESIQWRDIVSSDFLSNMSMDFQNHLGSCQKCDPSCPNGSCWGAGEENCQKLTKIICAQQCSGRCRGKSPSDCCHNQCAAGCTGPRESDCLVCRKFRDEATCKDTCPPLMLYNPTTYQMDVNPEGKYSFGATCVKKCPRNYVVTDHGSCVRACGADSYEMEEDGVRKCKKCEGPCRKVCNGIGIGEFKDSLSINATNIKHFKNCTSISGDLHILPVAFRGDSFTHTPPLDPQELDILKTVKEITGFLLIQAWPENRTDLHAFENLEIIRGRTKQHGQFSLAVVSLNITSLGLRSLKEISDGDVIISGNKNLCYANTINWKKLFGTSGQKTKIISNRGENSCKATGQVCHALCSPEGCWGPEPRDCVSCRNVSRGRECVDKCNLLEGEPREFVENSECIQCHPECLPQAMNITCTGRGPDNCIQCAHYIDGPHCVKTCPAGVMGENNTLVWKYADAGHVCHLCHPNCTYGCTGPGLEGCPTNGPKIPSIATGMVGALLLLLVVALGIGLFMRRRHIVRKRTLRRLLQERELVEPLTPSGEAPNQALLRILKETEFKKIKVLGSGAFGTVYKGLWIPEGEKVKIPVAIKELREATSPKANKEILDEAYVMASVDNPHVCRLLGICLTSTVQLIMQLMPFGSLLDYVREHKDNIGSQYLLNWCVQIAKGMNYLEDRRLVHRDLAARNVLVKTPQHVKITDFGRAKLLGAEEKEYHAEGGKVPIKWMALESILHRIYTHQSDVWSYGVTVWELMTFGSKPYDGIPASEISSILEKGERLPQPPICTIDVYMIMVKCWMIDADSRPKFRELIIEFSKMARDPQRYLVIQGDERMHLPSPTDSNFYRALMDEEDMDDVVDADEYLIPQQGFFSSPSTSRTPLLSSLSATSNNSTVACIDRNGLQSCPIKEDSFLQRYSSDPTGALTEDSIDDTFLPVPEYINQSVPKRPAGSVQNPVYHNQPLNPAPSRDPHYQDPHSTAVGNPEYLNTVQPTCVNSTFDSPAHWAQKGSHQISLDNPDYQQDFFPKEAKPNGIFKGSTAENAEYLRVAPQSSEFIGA

Row | SMILES | IC50 (EGFR_L858R/T790M/C797S) | GI50 [1] | IC50 (Ba/F3_WT cell)
1 | COc1cc(N2CCN(C(C)=O)CC2)c2cc1Nc1ncc(Cl)c(n1)Nc1ccc(cc1N(C)S(C)(=O)=O)OCCCCC2 [Compound A31, N-(1^4-(4-acetylpiperazin-1-yl)-3^5-chloro-1^6-methoxy-6-oxa-2,4-diaza-3(2,4)-pyrimidina-1(1,3),5(1,4)-dibenzenacycloundecaphane-5^2-yl)-N-methylmethanesulfonamide] | 12.7 nM | 154 nM | > 10000 nM
2 | COc1cc(N2CCN(C)CC2)c2cc1Nc1ncc(Cl)c(n1)Nc1ccc(cc1NS(C)(=O)=O)OCCCCC2 [Compound A16, N-(3^5-chloro-1^6-methoxy-1^4-(4-methylpiperazin-1-yl)-6-oxa-2,4-diaza-3(2,4)-pyrimidina-1(1,3),5(1,4)-dibenzenacycloundecaphane-5^2-yl)methanesulfonamide] | 20.3 nM | – | –
3 | COc1cc(N2CCN(C)CC2)c2cc1Nc1ncc(Cl)c(n1)Nc1ccc(cc1N(C)S(C)(=O)=O)OCCCCC2 [Compound A3, N-(3^5-chloro-1^6-methoxy-1^4-(4-methylpiperazin-1-yl)-6-oxa-2,4-diaza-3(2,4)-pyrimidina-1(1,3),5(1,4)-dibenzenacycloundecaphane-5^2-yl)-N-methylmethanesulfonamide] | 9.86 nM | 135 nM | 1180 nM
4 | COc1cc(N2CCN(C)CC2)c2cc1Nc1ncc(F)c(n1)Nc1ccc(cc1N(C)S(C)(=O)=O)OCCCCC2 [Compound A11, N-(3^5-fluoro-1^6-methoxy-1^4-(4-methylpiperazin-1-yl)-6-oxa-2,4-diaza-3(2,4)-pyrimidina-1(1,3),5(1,4)-dibenzenacycloundecaphane-5^2-yl)-N-methylmethanesulfonamide] | 17 nM | – | –
5 | CC(C)Oc1cc(N2CCN(C)CC2)c2cc1Nc1ncc(Cl)c(n1)Nc1ccc(cc1N(C)S(C)(=O)=O)OCCCCC2 [Compound A22, N-(3^5-chloro-1^6-isopropoxy-1^4-(4-methylpiperazin-1-yl)-6-oxa-2,4-diaza-3(2,4)-pyrimidina-1(1,3),5(1,4)-dibenzenacycloundecaphane-5^2-yl)-N-methylmethanesulfonamide] | 503 nM | – | –
6 | COc1cc(N2CCN(C)CC2)c2cc1Nc1ncc(Cl)c(n1)Nc1ccc(cc1S(C)(=O)=O)OCCCC2 [Compound A6, 3^5-chloro-1^6-methoxy-1^4-(4-methylpiperazin-1-yl)-5^2-(methylsulfonyl)-6-oxa-2,4-diaza-3(2,4)-pyrimidina-1(1,3),5(1,4)-dibenzenacyclodecaphane] | 10000 nM | – | –
7 | CCOc1cc(N2CCN(C)CC2)c2cc1Nc1ncc(Cl)c(n1)Nc1ccc(cc1N(C)S(C)(=O)=O)OCCCCC2 [Compound A21, N-(3^5-chloro-1^6-ethoxy-1^4-(4-methylpiperazin-1-yl)-6-oxa-2,4-diaza-3(2,4)-pyrimidina-1(1,3),5(1,4)-dibenzenacycloundecaphane-5^2-yl)-N-methylmethanesulfonamide] | 40.5 nM | – | –
8 | COc1cc(N(C)CCN(C)C)c2cc1Nc1ncc(Cl)c(n1)Nc1ccc(cc1N(C)S(C)(=O)=O)OCCCCC2 [Compound A5, N-(3^5-chloro-1^4-((2-(dimethylamino)ethyl)(methyl)amino)-1^6-methoxy-6-oxa-2,4-diaza-3(2,4)-pyrimidina-1(1,3),5(1,4)-dibenzenacycloundecaphane-5^2-yl)-N-methylmethanesulfonamide] | 27.9 nM | – | –
9 | COc1cc(N2CCN(C)CC2)c2cc1Nc1ncc(Br)c(n1)Nc1ccc(cc1N(C)S(C)(=O)=O)OCCCCC2 [Compound A12, N-(3^5-bromo-1^6-methoxy-1^4-(4-methylpiperazin-1-yl)-6-oxa-2,4-diaza-3(2,4)-pyrimidina-1(1,3),5(1,4)-dibenzenacycloundecaphane-5^2-yl)-N-methylmethanesulfonamide] | 0.6 nM | – | –
10 | COc1cc(N2CCC(N(C)CCN(C)C)CC2)c2cc1Nc1ncc(Br)c(n1)Nc1ccc(cc1N(C)S(C)(=O)=O)OCCCCC2 [Compound A36, N-(3^5-bromo-1^4-(4-((2-(dimethylamino)ethyl)(methyl)amino)piperidin-1-yl)-1^6-methoxy-6-oxa-2,4-diaza-3(2,4)-pyrimidina-1(1,3),5(1,4)-dibenzenacycloundecaphane-5^2-yl)-N-methylmethanesulfonamide] | 2.9 nM | – | –
11 | COc1cc(N2CCC(N3CCC(N(C)C)CC3)CC2)c2cc1Nc1ncc(Br)c(n1)Nc1ccc(cc1N(C)S(C)(=O)=O)OCCCCC2 [Compound A37, N-(3^5-bromo-1^4-(4-(dimethylamino)-[1,4′-bipiperidin]-1′-yl)-1^6-methoxy-6-oxa-2,4-diaza-3(2,4)-pyrimidina-1(1,3),5(1,4)-dibenzenacycloundecaphane-5^2-yl)-N-methylmethanesulfonamide] | 0.6 nM | – | –
12 | COc1cc(N2CCN(C)CC2)c2cc1Nc1ncc(Cl)c(n1)Nc1ccc(cc1C(=O)N(C)C)OCCCCCC2 [Compound A25, 3^5-chloro-1^6-methoxy-N,N-dimethyl-1^4-(4-methylpiperazin-1-yl)-6-oxa-2,4-diaza-3(2,4)-pyrimidina-1(1,3),5(1,4)-dibenzenacyclododecaphane-5^2-carboxamide] | 2510 nM | – | –
13 | COc1cc(N2CCC3(CC2)CN(C)C3)c2cc1Nc1ncc(Br)c(n1)Nc1ccc(cc1N(C)S(C)(=O)=O)OCCCCC2 [Compound A38, N-(3^5-bromo-1^6-methoxy-1^4-(2-methyl-2,7-diazaspiro[3.5]nonan-7-yl)-6-oxa-2,4-diaza-3(2,4)-pyrimidina-1(1,3),5(1,4)-dibenzenacycloundecaphane-5^2-yl)-N-methylmethanesulfonamide] | 0.3 nM | – | –
14 | COc1cc(N(C)CCN(C)C)c2cc1Nc1ncc(Cl)c(n1)Nc1ccc(cc1N(C)S(C)(=O)=O)OCCC2 [Compound A7, N-(3^5-chloro-1^4-((2-(dimethylamino)ethyl)(methyl)amino)-1^6-methoxy-6-oxa-2,4-diaza-3(2,4)-pyrimidina-1(1,3),5(1,4)-dibenzenacyclononaphane-5^2-yl)-N-methylmethanesulfonamide] | 3760 nM | – | –
15 | COc1cc(N2CCC(N3CCN(C)CC3)CC2)c2cc1Nc1ncc(Br)c(n1)Nc1ccc(cc1N(C)S(C)(=O)=O)CCC(=O)NCCC2 [Compound A41, N-(3^5-bromo-1^6-methoxy-1^4-(4-(4-methylpiperazin-1-yl)piperidin-1-yl)-8-oxo-2,4,9-triaza-3(2,4)-pyrimidina-1(1,3),5(1,4)-dibenzenacyclododecaphane-5^2-yl)-N-methylmethanesulfonamide] | 0.4 nM | – | –
16 | COc1cc(N2CCN(C)CC2)c2cc1Nc1ncc(Cl)c(n1)Nc1ccc(cc1N(C)S(=O)(=O)C(C)C)OCCCCC2 [Compound A17, N-(3^5-chloro-1^6-methoxy-1^4-(4-methylpiperazin-1-yl)-6-oxa-2,4-diaza-3(2,4)-pyrimidina-1(1,3),5(1,4)-dibenzenacycloundecaphane-5^2-yl)-N-methylpropane-2-sulfonamide] | 82.2 nM | – | –
17 | COc1cc(N2CCC(N3CCN(C)CC3)CC2)c2cc1Nc1ncc(Br)c(n1)Nc1ccc(cc1N(C)S(C)(=O)=O)CCCNC(=O)CC2 [Compound A42] | 3.8 nM | – | –
18 | COc1cc(N2CCC(N3CCN(C)CC3)CC2)c2cc1Nc1ncc(Cl)c(n1)Nc1ccc(cc1N(C)S(C)(=O)=O)OCCCCC(=O)N2 [Compound A40, N-(3^5-chloro-1^6-methoxy-1^4-(4-(4-methylpiperazin-1-yl)piperidin-1-yl)-11-oxo-6-oxa-2,4,12-triaza-3(2,4)-pyrimidina-1(1,3),5(1,4)-dibenzenacyclododecaphane-5^2-yl)-N-methylmethanesulfonamide] | 4.3 nM | – | –
19 | COc1cc(N2CCN(C)CC2)c2cc1Nc1ncc(Cl)c(n1)Nc1ccc(cc1N(C)S(C)(=O)=O)OCCC2 [Compound A2, N-(3^5-chloro-1^6-methoxy-1^4-(4-methylpiperazin-1-yl)-6-oxa-2,4-diaza-3(2,4)-pyrimidina-1(1,3),5(1,4)-dibenzenacyclononaphane-5^2-yl)-N-methylmethanesulfonamide] | 643 nM | – | –
20 | COc1cc(N2CCC(N3CCN(C)CC3)CC2)c2cc1Nc1ncc(Cl)c(n1)Nc1ccc(cc1S(C)(=O)=O)OCCCCCC2 [Compound A19, 3^5-chloro-1^6-methoxy-1^4-(4-(4-methylpiperazin-1-yl)piperidin-1-yl)-5^2-(methylsulfonyl)-6-oxa-2,4-diaza-3(2,4)-pyrimidina-1(1,3),5(1,4)-dibenzenacyclododecaphane] | 180 nM | – | –
